Data set [1] addresses T1, human metastin receptor hOT7T175 (Homo sapiens, UniProt Q969F8, L364H).
T1 construct: encoding the entire length of human metastin receptor hOT7T175; expressed in transfected cells; host or cells: CHO/dhFr- cells (ATCC #CRL-9096) stably transfected with pAKKO-hOT7T175; clone h175-16 was used as whole cells for FLIPR
In words: binding inhibiting activity: 125I-metastin (40-54) binding to cell membrane fraction of h175 KB34 cells. Conditions: room temperature 60 minutes, read-out: binding inhibiting activity, represented by the IC50 value. In outline:
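The assay buffer (pH 7.4 Tris with magnesium acetate, EGTA and a protease-inhibitor cocktail) was used either plain or supplemented with 1 mg/ml BSA. The radioligand was 125I-labelled human metastin (40-54). The receptor source was a 250-fold diluted membrane fraction of the stable CHO/dhfr− line h175 KB34.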

T1 sequence (Q969F8 whole entry L364H): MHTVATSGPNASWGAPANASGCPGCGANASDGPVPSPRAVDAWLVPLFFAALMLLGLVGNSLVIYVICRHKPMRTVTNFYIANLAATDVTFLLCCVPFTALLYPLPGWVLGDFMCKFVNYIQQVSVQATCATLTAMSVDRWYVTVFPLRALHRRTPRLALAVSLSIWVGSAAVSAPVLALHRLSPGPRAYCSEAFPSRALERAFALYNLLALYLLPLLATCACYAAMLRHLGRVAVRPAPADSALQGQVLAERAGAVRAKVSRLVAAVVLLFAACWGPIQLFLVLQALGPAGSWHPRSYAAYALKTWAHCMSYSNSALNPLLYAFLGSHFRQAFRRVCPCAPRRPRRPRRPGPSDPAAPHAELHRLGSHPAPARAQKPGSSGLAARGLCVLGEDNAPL

On to `CC(C)C(N)CC(=O)Nc1cccc(-c2cc(-c3ccc(F)cc3O)nc(NC(=O)c3ccco3)c2C#N)c1.Cl` (stereo not shown) [Example 266, N-[4-{3-[(3-amino-4-methylpentanoyl)amino]phenyl}-3-cyano-6-(4-fluoro-2-hydroxyphenyl)pyridin-2-yl]-2-furamide hydrochloride], for which the melting point fell in the range of 214 to 217 °C. Also, the IC50 in data set [1] was at most 10 µM.

Consider `C[C@H](N)CC(=O)Nc1cccc(-c2cc(-c3ccc(Cl)cc3O)nc(NC(=O)c3nccs3)c2C#N)c1.Cl` [Example 269, N-[4-(3-{[(3S)-3-aminobutanoyl]amino}phenyl)-6-(4-chloro-2-hydroxyphenyl)-3-cyanopyridin-2-yl]-1,3-thiazole-2-carboxamide hydrochloride], for which the melting point fell in the range of 218 to 221 °C. For the same compound, the IC50 in data set [1] is at most 10 µM.

Turning to `C[C@@H](N)CC(=O)Nc1cccc(-c2cc(-c3ccc(Cl)cc3O)nc(NC(=O)c3nccs3)c2C#N)c1.Cl` [Example 270, N-[4-(3-{[(3R)-3-aminobutanoyl]amino}phenyl)-6-(4-chloro-2-hydroxyphenyl)-3-cyanopyridin-2-yl]-1,3-thiazole-2-carboxamide hydrochloride], the melting point lay in the range of 218 to 221 °C. For the same compound, the IC50 in data set [1] was at most 10 µM.

`Cc1ccc(C(=O)Nc2nc(-c3ccc(Cl)cc3O)cc(-c3cccc(NC(=O)CC(C)N)c3)c2C#N)o1.Cl` (stereo not shown) [Example 271, N-[4-{3-[(3-aminobutanoyl)amino]phenyl}-6-(4-chloro-2-hydroxyphenyl)-3-cyanopyridin-2-yl]-5-methyl-2-furamide hydrochloride]: the melting point lay within 206 to 212 °C. In addition, the concentration for half-maximal inhibition (IC50) in data set [1] is at most 10 µM.

In turn, `COc1c(C(=O)NCCN)cccc1-c1cc(-c2ccccc2O)nc(NC(=O)c2ccco2)c1C#N.Cl` [Example 273, N-[4-(3-{[(2-aminoethyl)amino]carbonyl}-2-methoxyphenyl)-3-cyano-6-(2-hydroxyphenyl)pyridin-2-yl]-2-furamide hydrochloride] gave a melting point of 182 to 188 °C. Besides, in data set [1], the IC50 was at most 10 µM.

In turn, `Cl.N#Cc1c(-c2ccc(F)c(C(=O)NCCN)c2)cc(-c2ccc(F)cc2O)nc1NC(=O)c1ccco1` [Example 281, N-[4-(3-{[(2-aminoethyl)amino]carbonyl}-4-fluorophenyl)-3-cyano-6-(4-fluoro-2-hydroxyphenyl)pyridin-2-yl]-2-furamide hydrochloride] registered a melting point of 255 to 264 °C. Besides, the IC50 in data set [1] was at most 10 µM.

`Cl.N#Cc1c(-c2cccc(NC(=O)[C@H]3CCCC[C@H]3N)c2)cc(-c2ccc(F)cc2O)nc1NC(=O)c1ccco1` [Example 283, N-{4-[3-({[(1S,2R)-2-aminocyclohexyl]carbonyl}amino)phenyl]-3-cyano-6-(4-fluoro-2-hydroxyphenyl)pyridin-2-yl}-2-furamide hydrochloride] had a melting point of 237 to 239 °C. For the same compound, in data set [1], the IC50 was at most 10 µM.

For the compound `Cl.N#Cc1c(-c2cccc(NC(=O)[C@@H]3CCCC[C@@H]3N)c2)cc(-c2ccc(F)cc2O)nc1NC(=O)c1ccco1` [Example 284, N-{4-[3-({[(1R,2S)-2-aminocyclohexyl]carbonyl}amino)phenyl]-3-cyano-6-(4-fluoro-2-hydroxyphenyl)pyridin-2-yl}-2-furamide hydrochloride], the melting point is 220 to 223 °C. Further, in data set [1], the IC50 was at most 10 µM.

For the compound `CCCC(CC(=O)Nc1cccc(-c2cc(-c3ccc(F)cc3O)nc(NC(=O)c3ccco3)c2C#N)c1)N(C)C.Cl` (stereo not shown) [Example 285, N-[3-cyano-4-(3-{[3-(dimethylamino)hexanoyl]amino}phenyl)-6-(4-fluoro-2-hydroxyphenyl)pyridin-2-yl]-2-furamide hydrochloride], the melting point lay in the range of 180 to 182 °C. Moreover, the IC50 in data set [1] was at most 10 µM.

Consider `CN(C)[C@@H]1CCCC[C@@H]1C(=O)Nc1cccc(-c2cc(-c3ccc(F)cc3O)nc(NC(=O)c3ccco3)c2C#N)c1.Cl` [Example 286, N-{3-cyano-4-[3-({[(1S,2R)-2-(dimethylamino)cyclohexyl]carbonyl}amino)phenyl]-6-(4-fluoro-2-hydroxyphenyl)pyridin-2-yl}-2-furamide hydrochloride], for which the melting point was in the range of 205 to 207 °C. For the same compound, in data set [1], the IC50 is at most 10 µM.

For the compound `CN(C)[C@H]1CCCC[C@H]1C(=O)Nc1cccc(-c2cc(-c3ccc(F)cc3O)nc(NC(=O)c3ccco3)c2C#N)c1.Cl` [Example 287, N-{3-cyano-4-[3-({[(1R,2S)-2-(dimethylamino)cyclohexyl]carbonyl}amino)phenyl]-6-(4-fluoro-2-hydroxyphenyl)pyridin-2-yl}-2-furamide hydrochloride], the melting point fell in the range of 217 to 218 °C. Also, the 50% inhibitory concentration (IC50) in data set [1] was at most 10 µM.

With `Cl.N#Cc1c(-c2cccc(NC(=O)[C@H]3CCCN3)c2)cc(-c2ccc(F)cc2O)nc1NC(=O)c1ccco1` [Example 291, N-{3-[3-cyano-6-(4-fluoro-2-hydroxyphenyl)-2-(2-furoylamino)pyridin-4-yl]phenyl}-D-prolinamide hydrochloride], the melting point was in the range of 216 to 220 °C. Also, in data set [1], the IC50 is at most 10 µM.

The compound `Cl.N#Cc1c(-c2cccc(NC(=O)[C@H]3CCCN3)c2)cc(-c2ccc(F)cc2O)nc1NC(=O)c1nccs1` [Example 292, N-(3-{3-cyano-6-(4-fluoro-2-hydroxyphenyl)-2-[(1,3-thiazol-2-ylcarbonyl)amino]pyridin-4-yl}phenyl)-D-prolinamide hydrochloride] displayed a melting point of 241 to 244 °C. The IC50 in data set [1] is at most 10 µM.

With `Cl.N#Cc1c(-c2cccc(NC(=O)[C@H]3CCCN3)c2)cc(-c2ccc(F)cc2O)nc1NC(=O)c1ccno1` [Example 293, N-(3-{3-cyano-6-(4-fluoro-2-hydroxyphenyl)-2-[(isoxazol-5-ylcarbonyl)amino]pyridin-4-yl}phenyl)-D-prolinamide hydrochloride], the melting point is ≥ 250 °C (dec.). The IC50 in data set [1] was at most 10 µM.

Consider `Cl.N#Cc1c(-c2cccc(NC(=O)[C@H]3CCCN3)c2)cc(-c2ccc(Cl)cc2O)nc1NC(=O)c1nccs1` [Example 294, N-(3-{6-(4-chloro-2-hydroxyphenyl)-3-cyano-2-[(1,3-thiazol-2-ylcarbonyl)amino]pyridin-4-yl}phenyl)-D-prolinamide hydrochloride], for which the melting point lay within 222 to 228 °C. For the same compound, the 50% inhibitory concentration (IC50) in data set [1] was at most 10 µM.

On to `Cl.N#Cc1c(-c2cccc(NC(=O)[C@H]3CCCN3)c2)cc(-c2ccc(Cl)cc2O)nc1NC(=O)c1ccno1` [Example 295, N-(3-{6-(4-chloro-2-hydroxyphenyl)-3-cyano-2-[(isoxazol-5-ylcarbonyl)amino]pyridin-4-yl}phenyl)-D-prolinamide hydrochloride], for which the melting point is ≥ 250 °C (dec.). The IC50 in data set [1] is at most 10 µM.

`Cl.N#Cc1c(-c2cccc(NC(=O)[C@H]3CCCN3)c2)cc(-c2ccc(Cl)cc2O)nc1NC(=O)c1ccco1` [Example 296, N-{3-[6-(4-chloro-2-hydroxyphenyl)-3-cyano-2-(2-furoylamino)pyridin-4-yl]phenyl}-D-prolinamide hydrochloride] came in with a melting point of 208 to 213 °C. In data set [1], the concentration for half-maximal inhibition (IC50) is at most 10 µM.

`Cl.N#Cc1c(-c2cccc(NC(=O)[C@@H]3C[C@@H](O)CN3)c2)cc(-c2ccc(F)cc2O)nc1NC(=O)c1ccco1` [Example 298, (4R)—N-{3-[3-cyano-6-(4-fluoro-2-hydroxyphenyl)-2-(2-furoylamino)pyridin-4-yl]phenyl}-4-hydroxy-L-prolinamide hydrochloride] gave a melting point of 260 to 262 °C. In data set [1], the IC50 was at most 10 µM.

`CN1C[C@H](O)C[C@H]1C(=O)Nc1cccc(-c2cc(-c3ccc(F)cc3O)nc(NC(=O)c3ccco3)c2C#N)c1.Cl` [Example 299, (4R)—N-{3-[3-cyano-6-(4-fluoro-2-hydroxyphenyl)-2-(2-furoylamino)pyridin-4-yl]phenyl}-4-hydroxy-1-methyl-L-prolinamide hydrochloride] came in with a melting point of 215 to 217 °C. For the same compound, the IC50 in data set [1] was at most 10 µM.

`COC[C@H](N)C(=O)Nc1cccc(-c2cc(-c3ccc(F)cc3O)nc(NC(=O)c3ccco3)c2C#N)c1.Cl` [Example 301, N-(3-cyano-6-(4-fluoro-2-hydroxyphenyl)-4-{3-[(O-methyl-L-seryl)amino]phenyl}pyridin-2-yl)-2-furamide hydrochloride] returned a melting point of 224 to 230 °C. In addition, the IC50 in data set [1] is at most 10 µM.

For the compound `CCN(CC)[C@@H](COC)C(=O)Nc1cccc(-c2cc(-c3ccc(F)cc3O)nc(NC(=O)c3ccco3)c2C#N)c1.Cl` [Example 306, N-[3-cyano-4-{3-[(N,N-diethyl-O-methyl-L-seryl)amino]phenyl}-6-(4-fluoro-2-hydroxyphenyl)pyridin-2-yl]-2-furamide hydrochloride], the melting point was 192 to 196 °C. The IC50 in data set [1] was at most 10 µM.

On to `CC(=O)NCCNc1cccc(-c2cc(-c3ccc(F)cc3O)nc(NC(=O)c3ccco3)c2C#N)c1` [Example 307, N-[4-(3-{[2-(acetylamino)ethyl]amino}phenyl)-3-cyano-6-(4-fluoro-2-hydroxyphenyl)pyridin-2-yl]-2-furamide], for which the melting point was 158 to 160 °C. The IC50 in data set [1] was at most 10 µM.

Consider `CCNC(CC)CC(=O)Nc1cccc(-c2cc(-c3ccc(F)cc3O)nc(NC(=O)c3ccco3)c2C#N)c1.Cl` (stereo not shown) [Example 308, N-[3-cyano-4-(3-{[3-(ethylamino)pentanoyl]amino}phenyl)-6-(4-fluoro-2-hydroxyphenyl)pyridin-2-yl]-2-furamide hydrochloride], for which the melting point was 233 to 238 °C. The IC50 in data set [1] is at most 10 µM.

As a reminder, the melting point is the temperature of the solid-liquid transition. For orientation: IC50 means the concentration needed to halve the response being measured.
